Patent US20230050398A1, “METHODS FOR INCREASING SHELF-LIFE OF OPHTHALMIC PHARMACEUTICAL COMPOSITIONS” (Harrow IP, LLC, priority 2021, published 2023)
Values belong to the molecule of their own block, whether it stands above or below them.

Experiments:
Assay type in all cases: physicochemical
[1] = Stability of comparator composition (Example 3): amount of active ingredient by UHPLC; settings: for Pass/Fail: 25° C., acceptance 90-110% of label claim (bromfenac, moxifloxacin), 90-115% (prednisolone acetate); for % Label Claim (Potency) / Amount Found: stored at 25° C.
Protocol: The data collected included the concentration of the active ingredients in the composition. The amount of active ingredient in the composition was determined by ultra high performance liquid chromatography (UHPLC). The comparator composition was stored at 25° C. The composition comprised the active ingredients bromfenac, moxifloxacin, and prednisolone acetate.
A sample of the composition was provided on Nov.

[2] = Stability of ophthalmic pharmaceutical composition of Example 2: amount of active ingredient by UHPLC; settings: Example 2 composition; for Pass/Fail: 25° C., acceptance 90-110% of label claim (bromfenac, moxifloxacin), 90-115% (prednisolone acetate); for % Label Claim / Amount Found: stored at 25° C.
Protocol: (§1) The stability of an ophthalmic pharmaceutical composition made by the method of the present disclosure was studied and confirmed by the Compounder's International Analytical Laboratory. The data collected included the concentration of the active ingredients in the composition, the pH, and the appearance, color, and odor of the composition. The amount of active ingredient in the ophthalmic pharmaceutical composition was determined by ultra high performance liquid chromatography (UHPLC). The composition was stored at 25° C. The composition comprised the active ingredients bromfenac, moxifloxacin, and prednisolone acetate. The composition was considered stable if it contained 90-110% of the label claim of bromfenac and moxifloxacin and 90-115% of the label claim of prednisolone acetate. pH was determined according to USP 791, incorporated by reference herein. Additionally, the container enclosure was tested at baseline according to USP 1207 and 381, incorporated by reference herein. No blue dye was observed via UV-Vis spectrophotometry.
A sample of the composition was provided on May 28, 2021. […] 7, 2021.

[3] = Stability of ophthalmic pharmaceutical composition of Example 1: amount of active ingredient by UHPLC; settings: Example 1 composition; for Pass/Fail: 25° C., acceptance 90-110% of label claim (bromfenac, moxifloxacin), 90-115% (prednisolone acetate); for % Label Claim / Amount Found: stored at 25° C.
Protocol: as §1, with “acetate.” for “acetate. pH was determined according to USP 791, incorporated by reference herein. Additionally, the container enclosure was tested at baseline according to USP 1207 and 381, incorporated by reference herein. No blue dye was observed via UV-Vis spectrophotometry.”
A sample of the composition was provided on Jul. 31, 2020. […] 21, 2020.

- Pass/Fail ([1]; after 30 days): Pass
- Pass/Fail ([1]; after 60 days): Pass
- Pass/Fail ([1]; after 90 days): Fail
- Pass/Fail ([1]; after 120 days): Fail
- Pass/Fail ([1]; after 150 days): Fail
- Pass/Fail ([1]; after 180 days): Fail
- Pass/Fail ([1]; baseline): Pass
- % Label Claim (Potency) ([1]; after 30 days): 94.9%
- Amount Found ([1]; after 30 days): 0.071%
- % Label Claim (Potency) ([1]; after 60 days): 92.2%
- Amount Found ([1]; after 60 days): 0.0692%
- % Label Claim (Potency) ([1]; after 90 days): 87%
- Amount Found ([1]; after 90 days): 0.0660%
- % Label Claim (Potency) ([1]; after 120 days): 82%
- Amount Found ([1]; after 120 days): 0.0618%
- % Label Claim (Potency) ([1]; after 150 days): 84%
- Amount Found ([1]; after 150 days): 0.0627%
- % Label Claim (Potency) ([1]; after 180 days): 78%
- Amount Found ([1]; after 180 days): 0.0584%
- % Label Claim (Potency) ([1]; baseline): 99.6%
- Amount Found ([1]; baseline): 0.0747%
- Pass/Fail ([2]; after 90 days): Pass
- Pass/Fail ([2]; after 180 days): Pass
- Pass/Fail ([2]; after 270 days): Pass
- Pass/Fail ([2]; after 300 days): Pass
- Pass/Fail ([2]; after 365 days): Pass
- Pass/Fail ([2]; baseline): Pass
- % Label Claim ([2]; after 90 days): 101.9%
- Amount Found ([2]; after 90 days): 0.07646%
- % Label Claim ([2]; after 180 days): 98.6%
- Amount Found ([2]; after 180 days): 0.07398%
- % Label Claim ([2]; after 270 days): 92.5%
- Amount Found ([2]; after 270 days): 0.06939%
- % Label Claim ([2]; after 300 days): 95.5%
- Amount Found ([2]; after 300 days): 0.0716%
- % Label Claim ([2]; after 365 days): 91.1%
- Amount Found ([2]; after 365 days): 0.06834%
- % Label Claim ([2]; baseline): 100.0%
- Amount Found ([2]; baseline): 0.07499%
- Pass/Fail ([3]; after 90 days): Pass
- Pass/Fail ([3]; after 120 days): Pass
- Pass/Fail ([3]; after 180 days): Pass
- Pass/Fail ([3]; after 210 days): Pass
- Pass/Fail ([3]; after 270 days): Pass
- Pass/Fail ([3]; baseline): Pass
- % Label Claim ([3]; after 90 days): 98.3%
- Amount Found ([3]; after 90 days): 0.07373%
- % Label Claim ([3]; after 120 days): 100.8%
- Amount Found ([3]; after 120 days): 0.07559%
- % Label Claim ([3]; after 180 days): 105.6%
- Amount Found ([3]; after 180 days): 0.07917%
- % Label Claim ([3]; after 210 days): 101.6%
- Amount Found ([3]; after 210 days): 0.0762%
- % Label Claim ([3]; after 270 days): 97.5%
- Amount Found ([3]; after 270 days): 0.07312%
- % Label Claim ([3]; baseline): 107.0%
- Amount Found ([3]; baseline): 0.08023%
SMILES: Nc1c(CC(=O)O)cccc1C(=O)c1ccc(Br)cc1 [Bromfenac, bromfenac]

- Pass/Fail ([1]; after 30 days): Pass
- Pass/Fail ([1]; after 60 days): Pass
- Pass/Fail ([1]; after 90 days): Pass
- Pass/Fail ([1]; after 120 days): Pass
- Pass/Fail ([1]; after 150 days): Pass
- Pass/Fail ([1]; after 180 days): Pass
- Pass/Fail ([1]; baseline): Pass
- % Label Claim (Potency) ([1]; after 30 days): 97.8%
- Amount Found ([1]; after 30 days): 0.978%
- % Label Claim (Potency) ([1]; after 60 days): 90.0%
- Amount Found ([1]; after 60 days): 0.9001%
- % Label Claim (Potency) ([1]; after 90 days): 99%
- Amount Found ([1]; after 90 days): 0.9885%
- % Label Claim (Potency) ([1]; after 120 days): 95%
- Amount Found ([1]; after 120 days): 0.9505%
- % Label Claim (Potency) ([1]; after 150 days): 93%
- Amount Found ([1]; after 150 days): 0.926%
- % Label Claim (Potency) ([1]; after 180 days): 91%
- Amount Found ([1]; after 180 days): 0.907%
- % Label Claim (Potency) ([1]; baseline): 98.4%
- Amount Found ([1]; baseline): 0.984%
- Pass/Fail ([2]; after 90 days): Pass
- Pass/Fail ([2]; after 180 days): Pass
- Pass/Fail ([2]; after 270 days): Pass
- Pass/Fail ([2]; after 300 days): Pass
- Pass/Fail ([2]; after 365 days): Pass
- Pass/Fail ([2]; baseline): Pass
- % Label Claim ([2]; after 90 days): 98.0%
- Amount Found ([2]; after 90 days): 0.9805%
- % Label Claim ([2]; after 180 days): 98.8%
- Amount Found ([2]; after 180 days): 0.9883%
- % Label Claim ([2]; after 270 days): 97.4%
- Amount Found ([2]; after 270 days): 0.9743%
- % Label Claim ([2]; after 300 days): 99.5%
- Amount Found ([2]; after 300 days): 0.9954%
- % Label Claim ([2]; after 365 days): 99.6%
- Amount Found ([2]; after 365 days): 0.9960%
- % Label Claim ([2]; baseline): 102.4%
- Amount Found ([2]; baseline): 1.024%
- Pass/Fail ([3]; after 90 days): Pass
- Pass/Fail ([3]; after 120 days): Pass
- Pass/Fail ([3]; after 180 days): Pass
- Pass/Fail ([3]; after 210 days): Pass
- Pass/Fail ([3]; after 270 days): Pass
- Pass/Fail ([3]; baseline): Pass
- % Label Claim ([3]; after 90 days): 99.2%
- Amount Found ([3]; after 90 days): 0.9915%
- % Label Claim ([3]; after 120 days): 103.5%
- Amount Found ([3]; after 120 days): 1.035%
- % Label Claim ([3]; after 180 days): 105.6%
- Amount Found ([3]; after 180 days): 1.056%
- % Label Claim ([3]; after 210 days): 106.5%
- Amount Found ([3]; after 210 days): 1.065%
- % Label Claim ([3]; after 270 days): 103.6%
- Amount Found ([3]; after 270 days): 1.036%
- % Label Claim ([3]; baseline): 100.0%
- Amount Found ([3]; baseline): 1.000%
SMILES: CC(=O)OCC(=O)[C@@]1(O)CC[C@H]2[C@@H]3CCC4=CC(=O)C=C[C@]4(C)[C@H]3[C@@H](O)C[C@@]21C [Prednisolone acetate, prednisolone acetate]
